“Also recorded” adds a separate entry of the source.
Key:
[1] = system: rat corpus cavernosum strips; test: Isometric tension of isolated rat corpus cavernosum strips; settings: baseline tension, clozapine 10^-6 M, SCH23390, L-NOARG 10^-4 M, sildenafil 10^-7 M
Description: For functional studies in corpus cavernosum strips, the penis was removed by cutting the crura corpora cavernosa at the point of adhesion to the lower pubic bone, and the corpora cavernosa were then dissected free. The penis was submerged immediately in ice-cold (4° C.) PSS. The tunica albuginea was carefully opened from its proximal extremity of the corpus cavernosum towards the penile shaft and the erectile tissue within the corpus cavernosum was microsurgically dissected free. Change in isometric tension of corpus cavernosum strips (0.5×0.5×3 mm) were investigated in a tissue organ bath system (750TOBS, Danish Myotechnology, Aarhus, Denmark). Silk ligatures were applied at both ends of the strip preparations, which were then suspended between two L-formed metal prongs in thermostatically controlled organ baths (5 ml, 37° C.) containing PSS aerated with a mixture of 5% CO2 in air (pH 7.4). The bath fluid was routinely changed every 20 min and replaced with fresh PSS, also kept at 37° C. During an equilibration period of 60 min, tension was adjusted until a mean stable tension of 1.2 mN was obtained, as described earlier.
To test the contractility of the preparations, they were exposed to a potassium physiological saline solution (KPSS) of 125 mM and phenylephrine (10^-6 M), after each contraction acetylcholine was administrated to check endothelium-dependent relaxations.
To investigate the effect of IP2015 on corpus cavernosum strips, the drug (10 9-3×10^-4 M) was administered either in preparations at baseline tension or contracted with phenylephrine (10^-6 M) in the absence or presence of L-NOARG (10 4 M), a NO synthase inhibitor, sildenafil (10^-7 M), a PDE5 inhibitor, a dopamine D1 receptor antagonist, SCH23390, and a dopamine D2 receptor antagonist, clozapine (10^-6 M). The effect of vehicle was also investigated.

anaesthetized rats = test: Intracavernous pressure / spontaneous erections in anaesthetized rats; format: in vivo, rat; settings: rats
Description: For in vivo erectile physiology studies, rats were anaesthetized with pentobarbital sodium (Sygehus Apoteket, Aarhus, Denmark; 50 mg/kg) given intraperitoneally. During the experiment, the rats breathed spontaneously; the body temperature was monitored continuously and was maintained at 37° C. With a midline incision in the perineum, the base of the penis, enclosed by striated muscles, was exposed. The ischiocavernous muscle covering the crus corpus cavernosum was divided on one side, and entrance to the underlying tunica albuginea was given. A 25-gauge needle attached to a heparinized (100 IE ml-1) polyethylene catheter was inserted into the crus corpus cavernosum to measure intracavernous pressure (ICP). A heparinized polyethylene catheter (PE 50) was introduced into the carotid artery to measure mean arterial pressure (MAP). Continuous direct measurements of MAP and ICP were performed with transducers (Disposable BP Transducer, ADInstruments, UK), and registered and analysed on a computerized data acquisition system (PowerLab, ADInstruments).
A stabilizing period of 20-30 min was allowed before registration of basal ICP and MAP. Through a lower abdominal incision, the cavernous nerve was isolated at the lateral aspect of the prostate, and electrical stimulation was performed with a slender bipolar platinum electrode, which was connected to a S48 stimulator (Grass Instrument Co., Boston, MA, U.S.A.). To measure the maximum amplitude of the erectile response, a first stimulation of the cavernous nerve (square wave pulses of 6 Volts, 10 Hz, 1 ms pulse duration for 30 s) was performed.
IP2015, sildenafil, clozapine or vehicle were administered by injection in the jugular vein in volumes of maximum 200 μl. […] The observation period of spontaneous erection after injection of IP2015 was 30 min. Clozapine (1 mg/kg) or sildenafil (1 mg/kg) were administered 30 or 10 min prior to 1 mg/kg IP2015 injection, respectively. One group was injected with vehicle alone.
To investigate the involvement of proximal neuronal pathways in the effect of IP2015, mechanical denervation was performed. For mechanical denervation the isolated cavernous nerve was cut distal to the major pelvic ganglion. Absence of erectile response to electrical stimulation verified the efficacy of mechanical denervation.

Row | SMILES | effect on IP2015 relaxation of corpus cavernosum strips [1] | effect on IP2015 relaxation of corpus cavernosum strips ([1]; listed as NG-nitro-L-arginine) | effect on magnitude of erectile responses induced by IP2015 (0.1 mg/kg) (anaesthetized rats; sildenafil 1 mg/kg) | effect on IP2015-induced erectile responses (anaesthetized rats; sildenafil 1 mg/kg 10 min or clozapine 1 mg/kg 30 min prior to IP2015 i.v.)
1 | N=C(NCCC[C@H](N)C(=O)O)N[N+](=O)[O-] [L-NOARG, N^G-nitro-L-arginine, reference compound] | abolished the relaxant effect of IP2015 | blunted | – | –
2 | CCCc1nn(C)c2c(=O)[nH]c(-c3cc(S(=O)(=O)N4CCN(C)CC4)ccc3OCC)nc12 [sildenafil, reference compound] | enhanced relaxation to IP2015 | – | an effect on the magnitude of erectile responses | markedly increased the duration of these responses; also recorded: further enhanced the IP2015 mediated increase in intracavernosal pressure

From US20260216166A1, “COMPOUND FOR TREATMENT OF ERECTILE DYSFUNCTION” (Initiator Pharma A/S, priority 2023, published 2026)
